The text below walks through data of ChEMBL document CHEMBL5620353, “Novel antifungal triazoles with alkynyl-methoxyl side chains: Design, synthesis, and biological activity evaluation” (Eur J Med Chem, 2023).

Values after ≈ are worked out from the molar mass of the structure shown. Where only a bound is given, the exact number is not on record here.

Assay type in all cases: functional
Test [1] has as its system Candida tropicalis. Briefly: Antifungal activity against Candida tropicalis 8915 assessed as inhibition of fungal growth incubated for 48 hrs by microbroth dilution method. A general note: Broth dilution looks for growth in wells or tubes with falling amounts of substance.
Test [2] concerns Nakaseomyces glabratus. In words: Potency index, ratio of fluconazole MIC to test compound MIC for antifungal activity against Candida glabrata 537 assessed as inhibition of fungal growth incubated for 48 hrs by microbroth dilution method.
Test [3] relates to Nakaseomyces glabratus. In words: Antifungal activity against Candida glabrata 537 assessed as inhibition of fungal growth incubated for 48 hrs by microbroth dilution method.
In test [4] the test system is Candida parapsilosis. In words: Antifungal activity against Candida parapsilosis 22019 assessed as inhibition of fungal growth incubated for 48 hrs by microbroth dilution method. The following applies: Lodderomyces parapsilosis.
Test [5] relates to Candida albicans. In words: Antifungal activity against Candida albicans 10231 assessed as inhibition of fungal growth incubated for 48 hrs by microbroth dilution method.
The test system of test [6] is Aspergillus fumigatus. In words: Antifungal activity against Aspergillus fumigatus 7544 assessed as inhibition of fungal growth incubated for 72 hrs by microbroth dilution method.
Test [7] concerns Pichia kudriavzevii. Briefly: Antifungal activity against Candida krusei 4996 assessed as inhibition of fungal growth incubated for 48 hrs by microbroth dilution method.
Test [8] deals with Cryptococcus neoformans. In words: Antifungal activity against Cryptococcus neoformans 32,609 assessed as inhibition of fungal growth incubated for 72 hrs by microbroth dilution method.
The test system of test [9] is Candida albicans. In words: Antifungal activity against Candida albicans SC5314 assessed as inhibition of fungal growth incubated for 48 hrs by microbroth dilution method.

A word on the MIC: it is the least concentration at which growth counts as inhibited.

Take `C[C@@H](OCC#Cc1cc(Cl)ccc1Cl)[C@](O)(Cn1cncn1)c1ccc(F)cc1F`: the minimum inhibitory concentration (MIC) in test [1] is > 64 µg/mL; in test [3], ≤ 0.125 µg/mL; in test [4] it was 4 µg/mL (≈ 8.84 µM); in test [5], > 64 µg/mL; in test [6] it was 16 µg/mL (≈ 35.4 µM); in [7], 32 µg/mL (≈ 70.8 µM). Moreover, the figures for the MIC in test [8] and in test [9] were 2 µg/mL (≈ 4.42 µM) and 0.25 µg/mL (≈ 0.553 µM), respectively. Further, the Ratio result in [2] was “>=8”.
On to `C[C@@H](OCC#Cc1cccc(Cl)c1)[C@](O)(Cn1cncn1)c1ccc(F)cc1F`, for which the minimal inhibitory concentration (MIC) is 32 µg/mL (≈ 76.6 µM) in test [1]; 0.5 µg/mL (≈ 1.2 µM) in [3]; 2 µg/mL (≈ 4.79 µM) in test [4]; 32 µg/mL (≈ 76.6 µM) in test [5]; 2 µg/mL (≈ 4.79 µM) in test [6]; 32 µg/mL (≈ 76.6 µM) in test [7]. The MIC in test [8] was found to be 2 µg/mL (≈ 4.79 µM); in [9] it was 0.5 µg/mL (≈ 1.2 µM).
Turning to `C[C@@H](OCC#Cc1c(F)cc(F)cc1F)[C@](O)(Cn1cncn1)c1ccc(F)cc1F`, the minimal inhibitory concentration (MIC) was 64 µg/mL (≈ 146 µM) in [1]; ≤ 0.125 µg/mL in test [3]; 2 µg/mL (≈ 4.57 µM) in test [4]; > 64 µg/mL in test [5]; 4 µg/mL (≈ 9.15 µM) in [6]; 8 µg/mL (≈ 18.3 µM) in [7]. Moreover, the results for the MIC in test [8] and in [9] were 0.5 µg/mL (≈ 1.14 µM) and ≤ 0.125 µg/mL, respectively. Further, in test [2], the Ratio entry is “>=8”.
As to `COc1ccc(C#CCO[C@H](C)[C@](O)(Cn2cncn2)c2ccc(F)cc2F)cc1`, the MIC in test [1] was determined as 16 µg/mL (≈ 38.7 µM); in [3] it was 0.25 µg/mL (≈ 0.605 µM); in test [4], 4 µg/mL (≈ 9.68 µM); in [5] it was 16 µg/mL (≈ 38.7 µM); in test [6], 4 µg/mL (≈ 9.68 µM); in [7], 32 µg/mL (≈ 77.4 µM). Besides, the minimum inhibitory concentration (MIC) in test [8] is 2 µg/mL (≈ 4.84 µM); in [9] it was ≤ 0.125 µg/mL.
Turning to `C[C@@H](OCC#Cc1cccc(Cl)c1Cl)[C@](O)(Cn1cncn1)c1ccc(F)cc1F`, the MIC in test [1] was 32 µg/mL (≈ 70.8 µM); in test [3] it was 1 µg/mL (≈ 2.21 µM); in test [4], 8 µg/mL (≈ 17.7 µM); in test [5], 32 µg/mL (≈ 70.8 µM); in test [6] it was 4 µg/mL (≈ 8.84 µM); in test [7], 64 µg/mL (≈ 142 µM). Moreover, the MIC in [8] was 4 µg/mL (≈ 8.84 µM); in test [9] it was ≤ 0.125 µg/mL.
For the compound `C[C@@H](OCC#Cc1ccc(OC(F)(F)F)cc1)[C@](O)(Cn1cncn1)c1ccc(F)cc1F`, the minimum inhibitory concentration (MIC) amounted to 32 µg/mL (≈ 68.5 µM) in [1]; 2 µg/mL (≈ 4.28 µM) in [3]; 16 µg/mL (≈ 34.2 µM) in test [4]; 32 µg/mL (≈ 68.5 µM) in [5]; 8 µg/mL (≈ 17.1 µM) in test [6]; 64 µg/mL (≈ 137 µM) in test [7]. Further, the MIC in test [8] and in test [9] was 4 µg/mL (≈ 8.56 µM) each time.
In the case of `Cc1ccccc1C#CCO[C@H](C)[C@](O)(Cn1cncn1)c1ccc(F)cc1F`, the minimum inhibitory concentration (MIC) came out at 32 µg/mL (≈ 80.5 µM) in [1]; 0.25 µg/mL (≈ 0.629 µM) in test [3]; 4 µg/mL (≈ 10.1 µM) in test [4]; 8 µg/mL (≈ 20.1 µM) in [5]; 4 µg/mL (≈ 10.1 µM) in test [6]; 16 µg/mL (≈ 40.3 µM) in test [7]. In addition, the minimal inhibitory concentration (MIC) was determined as 1 µg/mL (≈ 2.52 µM) in test [8] and 0.25 µg/mL (≈ 0.629 µM) in [9].
On to `Cc1ccc(C#CCO[C@H](C)[C@](O)(Cn2cncn2)c2ccc(F)cc2F)cc1`, for which the MIC in [1] was 16 µg/mL (≈ 40.3 µM); in test [3] it was ≤ 0.125 µg/mL; in test [4], 4 µg/mL (≈ 10.1 µM); in [5], 16 µg/mL (≈ 40.3 µM); in test [6] it was 4 µg/mL (≈ 10.1 µM); in test [7], 32 µg/mL (≈ 80.5 µM). In addition, the minimal inhibitory concentration (MIC) is 2 µg/mL (≈ 5.03 µM) in [8] and ≤ 0.125 µg/mL in test [9]. The Ratio result in [2] is recorded as “>=8”.
`C[C@@H](OCC#Cc1ccccc1)[C@](O)(Cn1cncn1)c1ccc(F)cc1F`: the minimum inhibitory concentration (MIC) in test [1] is 32 µg/mL (≈ 83.5 µM); in [3], ≤ 0.125 µg/mL; in [4], 0.5 µg/mL (≈ 1.3 µM); in test [5], 8 µg/mL (≈ 20.9 µM); in test [6], 4 µg/mL (≈ 10.4 µM); in [7], 8 µg/mL (≈ 20.9 µM). The figures for the MIC in test [8] and in test [9] were 0.5 µg/mL (≈ 1.3 µM) and ≤ 0.125 µg/mL, respectively. The Ratio entry in test [2] is “>=8”.
Take `C[C@@H](OCC#Cc1c(Cl)cc(Cl)cc1Cl)[C@](O)(Cn1cncn1)c1ccc(F)cc1F`: the MIC in test [1] was 64 µg/mL (≈ 131 µM); in [3] it was ≤ 0.125 µg/mL; in test [4] it was 2 µg/mL (≈ 4.11 µM); in test [5], > 64 µg/mL; in test [6] it was 2 µg/mL (≈ 4.11 µM); in [7] it was 16 µg/mL (≈ 32.9 µM). Besides, the MIC in [8] amounted to 0.5 µg/mL (≈ 1.03 µM); in [9] it was 1 µg/mL (≈ 2.05 µM). Besides, the Ratio result in [2] is on record as “>=8”.
Regarding `C[C@@H](OCC#Cc1c(F)cccc1F)[C@](O)(Cn1cncn1)c1ccc(F)cc1F`, the MIC was 64 µg/mL (≈ 153 µM) in test [1]; 0.25 µg/mL (≈ 0.596 µM) in test [3]; 0.5 µg/mL (≈ 1.19 µM) in [4]; 16 µg/mL (≈ 38.2 µM) in test [5]; 1 µg/mL (≈ 2.38 µM) in test [6]; 4 µg/mL (≈ 9.54 µM) in test [7]. For the same compound, the minimal inhibitory concentration (MIC) in test [8] and in [9] was ≤ 0.125 µg/mL in each case.
